From the NIST ThermoML archive (doi:10.1016/j.tca.2011.12.010)
Numbers after ± are expanded uncertainties.

Experiment: Molar enthalpy of transition or fusion
Settings: DSC

## O=[N+]([O-])[O-].O=[N+]([O-])[O-].O=[N+]([O-])[O-].O=[N+]([O-])[O-].[K+].[K+].[Mg+2] [bis-potassium magnesium nitrate]
Crystal 1
  Molar enthalpy of transition or fusion: 4.95 ± 0.151 kcal/mol
Crystal 2
  Molar enthalpy of transition or fusion: 0.648 ± 0.0478 kcal/mol
